Molecular target: TNFα trimer (Homo sapiens, UniProt P01375)
Assay: TNFα FP Competitive Binding Assay
Conditions: TNFα FP competitive binding assay; class symbols A/B/C; read-out: TNF IC50
Outline: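 Compounds, 12-point 1:3 dilutions topping at 100 μM (2.0% DMSO) or 338 μM (3.4% DMSO) final, compete with 1 nM fluorescent probe for 20 nM TNFα trimer in HEPES/NaCl/EDTA/Triton buffer. After 18-24 h incubation at 37 °C plus 1 h rt equilibration, background-subtracted polarization is read and fitted with variable slope.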

Sequence of TNFα trimer (P01375 77-233 limits assumed): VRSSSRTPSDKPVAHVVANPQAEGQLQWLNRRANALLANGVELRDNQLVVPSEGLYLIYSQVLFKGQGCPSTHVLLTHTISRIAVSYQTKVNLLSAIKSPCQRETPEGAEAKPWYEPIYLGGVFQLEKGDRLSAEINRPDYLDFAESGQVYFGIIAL

| IC50 [nM] | Structure (SMILES) |
| --- | --- |
| 1000 to 10000 | CC(C)Oc1ccc(-c2ccc3nc4n(c3c2)C(c2ccccc2)COC4)cn1 (stereo not shown) [T.5] |
| 10000 to 100000 | CC(=O)Nc1ccc(-c2ccc3nc4n(c3c2)C(c2ccccc2)COC4)cn1 (stereo not shown) [T.6] |
| 1000 to 10000 | Cc1cc(-c2ccc3nc4n(c3c2)C(c2ccccc2)COC4)cnc1N1CCOCC1 (stereo not shown) [T.12] |
| 1000 to 10000 | CC(=O)N1CCN(c2ccc(-c3ccc4nc5n(c4c3)C(c3ccccc3)COC5)cn2)CC1 (stereo not shown) [T.13] |
| 1000 to 10000 | N#Cc1ccc(-c2ccc3nc4n(c3c2)C(c2ccccc2)COC4)cn1 (stereo not shown) [T.16] |
| 1000 to 10000 | CN1CCN(c2ccc(-c3ccc4nc5n(c4c3)C(c3ccccc3)COC5)cn2)CC1 (stereo not shown) [T.20] |
| 10000 to 100000 | c1ccc(C2COCc3nc4ccc(-c5cncnc5)cc4n32)cc1 (stereo not shown) [T.26] |
| 1000 to 10000 | c1ccc(C2COCc3nc4ccc(-c5cnc6ccoc6c5)cc4n32)cc1 (stereo not shown) [T.29] |
| 1000 to 10000 | Cc1cc(-c2ccc3nc4n(c3c2)C(c2ccccc2)COC4)cnc1OC(C)C (stereo not shown) [T.30] |
| 1000 to 10000 | Cc1cc(-c2ccc3nc4n(c3c2)C(c2ccccc2)COC4)cnc1N1CCN(C)CC1 (stereo not shown) [T.34] |
| < 1000 | CC(C)(O)c1ncc(-c2ccc3nc4n(c3c2)C(c2ccccc2)COC4)cn1 (stereo not shown) [T.35] |
| 1000 to 10000 | Fc1cccc(C2COCc3nc4ccc(-c5cnc(N6CCOCC6)nc5)cc4n32)c1 (stereo not shown) [U.2, 4-(3-Fluorophenyl)-7-(2-morpholinopyrimidin-5-yl)-3,4-dihydro-1H-benzo[4,5]imidazo[2,1-c][1,4]oxazine] |
| < 1000 | O=C1NCC2CN(c3ncc(-c4ccc5nc6n(c5c4)C(c4ccccc4Cl)COC6)cn3)CCN12 (stereo not shown) [V.2] |
| < 1000 | OC1CC2(CCN(c3ncc(-c4ccc5nc6n(c5c4)C(c4cccc(F)c4)COC6)cn3)CC2)C1 (stereo not shown) [X.2] |
| < 1000 | c1ccc([C@H]2CCCc3nc4ccc(-c5cnc(N6CCOCC6)nc5)cc4n32)cc1 [Y.1] |
| 10000 to 100000 | CC(C)(O)c1ncc(-c2ccc3nc4n(c3c2)[C@H](c2ccccc2)CC4)cn1 [Y.4] |
| 1000 to 10000 | COc1ccccc1[C@@H]1CCCc2nc3ccc(-c4cnc(C(C)(C)O)nc4)cn3c21 [Y.5] |
| 1000 to 10000 | Cc1ccc(C)c([C@@H]2CCc3nc4ccc(-c5cnc(C(C)(C)O)nc5)cc4n32)c1 [Y.9] |
| < 1000 | CC(C)(O)c1ncc(-c2ccc3nc4n(c3n2)[C@@]2(COC4)COc3ccccc32)cn1 [Y.13] |
| < 1000 | CC(C)(O)c1ncc(-c2ccc3nc4n(c3n2)[C@]2(CCOc3ccccc32)COC4)cn1 [Y.14] |

More lines, now with the values behind:

| Structure (SMILES) | IC50 [nM] |
| --- | --- |
| COc1ncc(-c2ccc3nc4n(c3c2)C(c2ccccc2)COC4)cc1F (stereo not shown) [T.1] | 1000 to 10000 |
| CS(=O)(=O)c1ccc(-c2ccc3nc4n(c3c2)C(c2ccccc2)COC4)cn1 (stereo not shown) [T.2] | 1000 to 10000 |
| c1ccc(C2COCc3nc4ccc(-c5cnc6nonc6c5)cc4n32)cc1 (stereo not shown) [T.3] | 1000 to 10000 |
| FC(F)(F)COc1ccc(-c2ccc3nc4n(c3c2)C(c2ccccc2)COC4)cn1 (stereo not shown) [T.4] | 1000 to 10000 |
| COc1ncc(-c2ccc3nc4n(c3c2)C(c2ccccc2)COC4)cc1C (stereo not shown) [T.7] | 1000 to 10000 |
| Cc1nccn1-c1cnc(-c2ccc3nc4n(c3c2)C(c2ccccc2)COC4)cn1 (stereo not shown) [T.8] | 1000 to 10000 |
| c1ccc(C2COCc3nc4ccc(-c5cnc(-n6ccnc6)cn5)cc4n32)cc1 (stereo not shown) [T.9] | 1000 to 10000 |
| c1ccc(C2COCc3nc4ccc(-c5ccc(N6CCNCC6)nc5)cc4n32)cc1 (stereo not shown) [T.10] | 1000 to 10000 |
| CN1CCOc2cc(-c3ccc4nc5n(c4c3)C(c3ccccc3)COC5)cnc21 (stereo not shown) [T.11] | 1000 to 10000 |
| CN(C)c1ncc(-c2ccc3nc4n(c3c2)C(c2ccccc2)COC4)cn1 (stereo not shown) [T.14] | 1000 to 10000 |
| N#Cc1ncc(-c2ccc3nc4n(c3c2)C(c2ccccc2)COC4)cn1 (stereo not shown) [T.15] | 1000 to 10000 |
| c1ccc(C2COCc3nc4ccc(-c5cnc(NC6CCCC6)nc5)cc4n32)cc1 (stereo not shown) [T.17] | 1000 to 10000 |
| Cc1ccc(-c2ccc3nc4n(c3c2)C(c2ccccc2)COC4)cn1 (stereo not shown) [T.18] | 1000 to 10000 |
| c1ccc(C2COCc3nc4ccc(-c5cnc6nccnc6c5)cc4n32)cc1 (stereo not shown) [T.19] | 10000 to 100000 |
| c1ccc(C2COCc3nc4ccc(-c5cnc(-n6cccn6)cn5)cc4n32)cc1 (stereo not shown) [T.21] | 1000 to 10000 |
| COc1ncc(-c2ccc3nc4n(c3c2)C(c2ccccc2)COC4)cn1 (stereo not shown) [T.22] | 1000 to 10000 |
| c1ccc(C2COCc3nc4ccc(-c5cnc(-n6cccn6)nc5)cc4n32)cc1 (stereo not shown) [T.23] | 1000 to 10000 |
| c1ccc(C2COCc3nc4ccc(-c5cnc(NC6CC6)nc5)cc4n32)cc1 (stereo not shown) [T.24] | 1000 to 10000 |
| c1ccc(C2COCc3nc4ccc(-c5ccc(N6CCOCC6)nc5)cc4n32)cc1 (stereo not shown) [T.25] | < 1000 |
| c1ccc(C2COCc3nc4ccc(-c5ccc(NCCN6CCOCC6)nc5)cc4n32)cc1 (stereo not shown) [T.28] | 10000 to 100000 |
| Cc1ncc(-c2ccc3nc4n(c3c2)C(c2ccccc2)COC4)cn1 (stereo not shown) [T.31] | 1000 to 10000 |

| Structure (SMILES) | IC50 [nM] |
| --- | --- |
| Cn1cnc2cc(-c3ccc4nc5n(c4c3)C(c3ccccc3)COC5)cnc21 (stereo not shown) [T.32] | 10000 to 100000 |
| FC(F)(F)c1ccc(-c2ccc3nc4n(c3c2)C(c2ccccc2)COC4)cn1 (stereo not shown) [T.33] | 1000 to 10000 |
| Fc1ccc(F)c(C2COCc3nc4ccc(-c5cnc(N6CCOCC6)nc5)cc4n32)c1 (stereo not shown) [U.1] | < 1000 |
| O=C1NCC2CN(c3ncc(-c4ccc5nc6n(c5c4)C(c4cccc(F)c4)COC6)cn3)CCN12 (stereo not shown) [V.1] | < 1000 |
| O=C1NCC2CN(c3ncc(-c4ccc5nc6n(c5c4)C4(CCc5ccccc54)COC6)cn3)CCN12 (stereo not shown) [V.3] | < 1000 |
| OC1CCN(c2ncc(-c3ccc4nc5n(c4c3)[C@@H](c3ccccc3)COC5)cn2)CC1(F)F (stereo partly shown) [W.1] | < 1000 |
| OC1CC2(CCN(c3ncc(-c4ccc5nc6n(c5c4)[C@@H](c4ccccc4)COC6)cn3)CC2)C1 [W.2] | < 1000 |
| O=S1(=O)CCN(c2ncc(-c3ccc4nc5n(c4c3)[C@@H](c3ccccc3)COC5)cn2)CC1 [W.3] | < 1000 |
| OC1CCN(c2ncc(-c3ccc4nc5n(c4c3)C(c3cccc(F)c3)COC5)cn2)CC1(F)F (stereo not shown) [X.1] | < 1000 |
| Fc1cccc(C2COCc3nc4ccc(-c5cnc(N6CCCOCC6)nc5)cc4n32)c1 (stereo not shown) [X.3] | < 1000 |
| CC(C)(O)c1ncc(-c2ccc3nc4n(c3c2)[C@@H](c2ccccc2)CCC4)cn1 [Y.2] | < 1000 |
| CC(C)(O)c1ncc(-c2ccc3nc4n(c3c2)[C@H](c2ccccc2)CCC4)cn1 [Y.3] | 1000 to 10000 |
| COc1ccccc1[C@H]1CCCc2nc3ccc(-c4cnc(C(C)(C)O)nc4)cn3c21 [Y.6] | < 1000 |
| Fc1cccc([C@H]2COCc3nc4ccc(-c5cnc(N6CCOCC6)nc5)cc4n32)c1 [Y.7] | < 1000 |
| Cc1ccc(C)c([C@H]2CCc3nc4ccc(-c5cnc(C(C)(C)O)nc5)cc4n32)c1 [Y.8] | < 1000 |
| c1ccc([C@H]2CCc3nc4ccc(-c5cnc(N6CCOCC6)nc5)nc4n32)cc1 [Y.10] | < 1000 |
| OC1CCN(c2ncc(-c3ccc4nc5n(c4n3)[C@@H](c3ccccc3)CC5)cn2)CC1 [Y.11] | < 1000 |
| CC(C)(O)c1ncc(-c2ccc3nc4n(c3n2)[C@@]2(CCOc3ccccc32)COC4)cn1 [Y.15] | 1000 to 10000 |
| COc1ccccc1[C@H]1COCc2nc3ccc(-c4cnc(C(C)(C)O)nc4)cc3n21 [Z.1] | < 1000 |
| CC(C)(O)c1ncc(-c2ccc3nc4n(c3c2)C(c2c(Cl)cccc2Cl)COC4)cn1 (stereo not shown) [Z.2] | < 1000 |
